Measurements from PubChem BioAssay AID1259407 (Chemical Carcinogenesis Research Information System (CCRIS), 2018).
Active and inactive are the calls of the source. The rule behind the calls is not given here.

Tested on: CCRIS mutagenicity, Ames/micronucleus/aberration tests
Assay: CCRIS mutagenicity studies

C1O[C@@H]1[C@@H]1CO1
mutagenic call (Test System: AMES SALMONELLA TYPHIMURIUM, Strain/Indicator: TA1535, Metabolic Activation: RAT, LIVER, S-9, Method: PREINCUBATION): active; positive
mutagenic call (Test System: AMES SALMONELLA TYPHIMURIUM, Strain/Indicator: TA1535, Metabolic Activation: RAT, LIVER, S-9, Method: STANDARD PLATE): active; positive
mutagenic call (Test System: AMES SALMONELLA TYPHIMURIUM, Strain/Indicator: TA1537, Metabolic Activation: HAMSTER, LIVER, S-9, AROCLOR 1254, Method: PREINCUBATION): inactive; negative
mutagenic call (Test System: AMES SALMONELLA TYPHIMURIUM, Strain/Indicator: TA1537, Metabolic Activation: HAMSTER, LIVER, S-9, AROCLOR 1254, Method: STANDARD PLATE): inactive; negative
mutagenic call (Test System: AMES SALMONELLA TYPHIMURIUM, Strain/Indicator: TA1537, Metabolic Activation: HAMSTER, LIVER, S-9, Method: PREINCUBATION): inactive; negative
mutagenic call (Test System: AMES SALMONELLA TYPHIMURIUM, Strain/Indicator: TA1537, Metabolic Activation: HAMSTER, LIVER, S-9, Method: STANDARD PLATE): inactive; negative
mutagenic call (Test System: AMES SALMONELLA TYPHIMURIUM, Strain/Indicator: TA1537, Metabolic Activation: MOUSE, LIVER, S-9, AROCLOR 1254, Method: PREINCUBATION): inactive; negative
mutagenic call (Test System: AMES SALMONELLA TYPHIMURIUM, Strain/Indicator: TA1537, Metabolic Activation: MOUSE, LIVER, S-9, AROCLOR 1254, Method: STANDARD PLATE): inactive; negative
mutagenic call (Test System: AMES SALMONELLA TYPHIMURIUM, Strain/Indicator: TA1537, Metabolic Activation: MOUSE, LIVER, S-9, Method: PREINCUBATION): inactive; negative
mutagenic call (Test System: AMES SALMONELLA TYPHIMURIUM, Strain/Indicator: TA1537, Metabolic Activation: MOUSE, LIVER, S-9, Method: STANDARD PLATE): inactive; negative
mutagenic call (Test System: AMES SALMONELLA TYPHIMURIUM, Strain/Indicator: TA1537, Metabolic Activation: NONE, Method: PREINCUBATION): inactive; negative
mutagenic call (Test System: AMES SALMONELLA TYPHIMURIUM, Strain/Indicator: TA1537, Metabolic Activation: NONE, Method: STANDARD PLATE): inactive; negative
mutagenic call (Test System: AMES SALMONELLA TYPHIMURIUM, Strain/Indicator: TA1537, Metabolic Activation: RAT, LIVER, S-9, AROCLOR 1254, Method: PREINCUBATION): inactive; negative
mutagenic call (Test System: AMES SALMONELLA TYPHIMURIUM, Strain/Indicator: TA1537, Metabolic Activation: RAT, LIVER, S-9, Method: PREINCUBATION): inactive; negative
mutagenic call (Test System: AMES SALMONELLA TYPHIMURIUM, Strain/Indicator: TA1537, Metabolic Activation: RAT, LIVER, S-9, Method: STANDARD PLATE): inactive; negative
mutagenic call (Test System: AMES SALMONELLA TYPHIMURIUM, Strain/Indicator: TA1538, Metabolic Activation: HAMSTER, LIVER, S-9, AROCLOR 1254, Method: PREINCUBATION): inactive; negative
mutagenic call (Test System: AMES SALMONELLA TYPHIMURIUM, Strain/Indicator: TA1538, Metabolic Activation: HAMSTER, LIVER, S-9, AROCLOR 1254, Method: STANDARD PLATE): inactive; negative
mutagenic call (Test System: AMES SALMONELLA TYPHIMURIUM, Strain/Indicator: TA1538, Metabolic Activation: HAMSTER, LIVER, S-9, Method: PREINCUBATION): inactive; negative
mutagenic call (Test System: AMES SALMONELLA TYPHIMURIUM, Strain/Indicator: TA1538, Metabolic Activation: HAMSTER, LIVER, S-9, Method: STANDARD PLATE): inactive; negative
mutagenic call (Test System: AMES SALMONELLA TYPHIMURIUM, Strain/Indicator: TA1538, Metabolic Activation: MOUSE, LIVER, S-9, AROCLOR 1254, Method: PREINCUBATION): inactive; negative
mutagenic call (Test System: AMES SALMONELLA TYPHIMURIUM, Strain/Indicator: TA1538, Metabolic Activation: MOUSE, LIVER, S-9, AROCLOR 1254, Method: STANDARD PLATE): inactive; negative
mutagenic call (Test System: AMES SALMONELLA TYPHIMURIUM, Strain/Indicator: TA1538, Metabolic Activation: MOUSE, LIVER, S-9, Method: PREINCUBATION): inactive; negative
mutagenic call (Test System: AMES SALMONELLA TYPHIMURIUM, Strain/Indicator: TA1538, Metabolic Activation: MOUSE, LIVER, S-9, Method: STANDARD PLATE): inactive; negative
mutagenic call (Test System: AMES SALMONELLA TYPHIMURIUM, Strain/Indicator: TA1538, Metabolic Activation: NONE, Method: PREINCUBATION): inactive; negative
mutagenic call (Test System: AMES SALMONELLA TYPHIMURIUM, Strain/Indicator: TA1538, Metabolic Activation: NONE, Method: STANDARD PLATE): inactive; negative
mutagenic call (Test System: AMES SALMONELLA TYPHIMURIUM, Strain/Indicator: TA1538, Metabolic Activation: RAT, LIVER, S-9, AROCLOR 1254, Method: PREINCUBATION): inactive; negative
mutagenic call (Test System: AMES SALMONELLA TYPHIMURIUM, Strain/Indicator: TA1538, Metabolic Activation: RAT, LIVER, S-9, Method: PREINCUBATION): inactive; negative
mutagenic call (Test System: AMES SALMONELLA TYPHIMURIUM, Strain/Indicator: TA1538, Metabolic Activation: RAT, LIVER, S-9, Method: STANDARD PLATE): inactive; negative
mutagenic call (Test System: E. COLI, Strain/Indicator: WP2 UVRA, Metabolic Activation: HAMSTER, LIVER, S-9, AROCLOR 1254, Method: STANDARD PLATE): inactive; negative
mutagenic call (Test System: E. COLI, Strain/Indicator: WP2 UVRA, Metabolic Activation: HAMSTER, LIVER, S-9, Method: PREINCUBATION): inactive; negative
mutagenic call (Test System: E. COLI, Strain/Indicator: WP2 UVRA, Metabolic Activation: MOUSE, LIVER, S-9, AROCLOR 1254, Method: STANDARD PLATE): inactive; negative
mutagenic call (Test System: E. COLI, Strain/Indicator: WP2 UVRA, Metabolic Activation: MOUSE, LIVER, S-9, Method: STANDARD PLATE): inactive; negative
mutagenic call (Test System: E. COLI, Strain/Indicator: WP2 UVRA, Metabolic Activation: NONE, Method: STANDARD PLATE): inactive; negative
mutagenic call (Test System: E. COLI, Strain/Indicator: WP2 UVRA, Metabolic Activation: RAT, LIVER, S-9, AROCLOR 1254, Method: PREINCUBATION): inactive; negative
mutagenic call (Test System: E. COLI, Strain/Indicator: WP2 UVRA, Metabolic Activation: RAT, LIVER, S-9, Method: PREINCUBATION): inactive; negative
mutagenic call (Test System: E. COLI, Strain/Indicator: WP2 UVRA, Metabolic Activation: RAT, LIVER, S-9, Method: STANDARD PLATE): inactive; negative
